Experimental data published in a melting point compilation (Tetko et al.).

SMILES	melting point
O=C(C1=NOC2C(=O)N(c3ccc(Cl)cc3)C(=O)C12)c1ccco1 (stereo not given)	171 °C
Cc1nc[nH]c1C=O	165 to 166 °C
CCOC(=O)C(Cl)=Cc1cc(N2C(=O)C3=C(CCCC3)C2=O)ccc1Cl	112 °C
O[C@@H]1CC2=C(CC=CC2)C[C@@H]1O	139 to 140 °C
Cc1cccc(C)c1OCC(C)N (stereo not given)	204 °C
Cc1csc(NS(=O)(=O)c2ccc(N)cc2)n1	237 °C
O=C1CC(=O)CC(c2ccccc2)C1	188 °C
Cc1cc(Br)cc(C)c1N=C=O	61 °C
CC(C)=CC1C(C(=O)OCN2C(=O)C3=C(CCCC3)C2=O)C1(C)C (stereo not given)	69 °C
CCOC(=O)C(C(=O)OCC)=C(C(=O)OCC)C(=O)OCC	58 °C
Cc1ccc(S(=O)(=O)N2C(C)C2c2ccccc2)cc1 (stereo not given)	188 to 190 °C
COc1ccc(C(=O)Cl)cc1OC	71 °C
COc1ccccc1OC(C)=O	31.5 °C
O=C(Nc1cccnc1Cl)c1ccc(Cl)cc1	146 to 148 °C
CN(C)CCCN1c2ccccc2S(=O)c2ccc(Cl)cc21 (stereo not given)	115 °C
COc1cc(OC)nc(NC(=O)NS(=O)(=O)c2ncccc2C(=O)N(C)C)n1	145 °C
CC(C)Cc1ccc(C(C)C(=O)O)cc1 (stereo not given)	75 °C
COc1cc(N)cc(OC)c1	55 °C
Cc1cc(-n2c(=O)[nH]c(=O)n(C)c2=O)ccc1Oc1ccc(SC(F)(F)F)cc1	194 °C
CC(=O)OCCc1ccc(CCOC(C)=O)cc1	65 °C
CCCC(O)C=CC=CC=CC#CC#CCCCO (stereo not given)	54 °C
CC(=O)CCc1ccc2c(c1)N(C(=O)c1ccccc1)C(C)CC2 (stereo not given)	74 °C

SMILES	melting point
COc1c(Cl)cc([N+](=O)[O-])c(OC)c1C(=O)O	131 °C
Cc1c([N+](=O)[O-])cc2c(c1[N+](=O)[O-])C(C)(C)CC2(C)C	132 °C
Cc1cc(C)c(CS)c(C)c1CS	65 to 66 °C
CC(=O)NCCc1c[nH]c2ccc(O)cc12	120 to 122 °C
CC(CCl)OP(=O)(OC(C)CCl)OC(C)CCl (stereo not given)	-40 °C
O=C1CCN(C(=O)CCl)N1	146 °C
COc1cc2c(cc1OCc1ccccc1)C(CC(C)C)N(Oc1c([N+](=O)[O-])cc([N+](=O)[O-])cc1[N+](=O)[O-])CC2 (stereo not given)	173 °C
Sc1nc2cc(Cl)ccc2[nH]1	300 °C
NC(=O)c1cc(Cl)cc(Cl)c1	160 to 162 °C
Cc1ccc(CO)c(C)c1	22 °C
Clc1nccc2ccccc12	34 °C
Cc1ccc(C)c2c1COC2=O	88 °C
C[Si]1(C)Oc2ccc3ccccc3c2-c2c(ccc3ccccc23)O[Si](C)(C)O1	173 °C
ClC1=C(Cl)C(Cl)(C2(Cl)C(Cl)=C(Cl)C(Cl)=C2Cl)C(Cl)=C1Cl	122 °C
Cc1cccc(NC(=O)C(C(F)(F)F)C(F)(F)F)n1	107 °C
Cc1cc(C)c(C=O)[nH]1	90 to 91 °C
N#C/C(=N\Nc1ccc(Cl)cc1)c1nc2ccccc2c(=O)[nH]1	253 °C
Fc1ccc(F)c(F)c1F	-42 °C
Cc1cc(C)c(Br)c(C)c1Br	65.5 °C
CC(c1cc2ccccc2s1)N(O)C(N)=O (stereo not given)	157 °C
FC(F)(F)c1cc(P(c2cc(C(F)(F)F)cc(C(F)(F)F)c2)c2cc(C(F)(F)F)cc(C(F)(F)F)c2)cc(C(F)(F)F)c1	100 °C
COc1ccccc1-c1ccc(/C=C2/C=C(CC(C)C)OC2=O)o1	89 °C

SMILES	melting point
O=S(=O)(Cl)c1ccc(Oc2ccccc2)nc1	114 to 116 °C
O=CC(O)C1OC(=O)C(O)C1O (stereo not given)	178 °C
COC(=O)c1cc2cc(N)ccc2s1	178 to 179 °C
CC(=O)c1cc(-c2ccc(Cl)cc2)oc1C	114 to 115 °C
COC(=O)C1Cc2c3c(c4c(c2CC1C(=O)OC)CC(C(=O)OC)C(C(=O)OC)C4)CC(C(=O)OC)C(C(=O)OC)C3 (stereo not given)	261 to 263 °C
O=S(=O)(O)CCN1CCN(CCS(=O)(=O)O)CC1	300 °C
COC(=O)c1ccc2ncccc2c1	88 to 89 °C
O=[N+]([O-])c1ccc(CCO)cc1	63 °C
CC(=O)Oc1c(-c2ccccc2)n(C(C)=O)c2cc([N+](=O)[O-])c(/C(Cl)=C/c3ccccc3)cc12	57 to 58 °C
O=C(O)[C@@H]1Cc2c([nH]c3ccccc23)CN1	295 to 296 °C
COc1ccc(C2Nn3c(nnc3-c3cccnc3)S2)cc1 (stereo not given)	219 °C
c1cc2c(c(NC3=NCCN3)c1)CCCC2	142 °C
CCCC(C)O (stereo not given)	-73 °C
N#CCCP(CCC#N)CCC#N	98 °C
COC(=O)NNC(=O)OC	129 to 131 °C
Cc1cc(C)c(O)c(C)c1C	80.5 °C
CC1=C(O)C(=O)C(C)O1 (stereo not given)	80.5 °C
CCOCCN(Cc1ccc(CN(CCOCC)C(=O)C(Cl)Cl)cc1)C(=O)C(Cl)Cl	140 °C
OCc1ccc(-c2ccccc2)cc1	101 to 105 °C
COc1ccc2[nH]c3c(c2c1)CCNC3C (stereo not given)	150 °C

The next lines start with the values.

melting point	SMILES
270 to 275 °C	Oc1cccc2c(O)nccc12
44 to 46 °C	CN1CCCN(c2ccc(C=O)cc2)CC1
71 °C	O=Cc1cn2ccsc2n1
154 to 156 °C	Cc1cc(-c2cc(C)n(C)n2)n[nH]1
52 to 54 °C	COC(=O)c1ccc(C(=O)OC)c(Br)c1
135 to 137 °C	NC(=O)CC[C@H](NC(=O)OCc1ccccc1)C(=O)O
72 °C	Cc1cc(C)c(O)cc1C
175 °C	CC(=O)N(C(C)=O)c1cc([N+](=O)[O-])c(/C=C/c2ccccc2)c([N+](=O)[O-])c1/C=C/c1ccccc1
226 °C	NC(=O)CCCCC(N)=O
120 °C	O=C(NCc1ccccc1)c1cccnc1Cl
145 to 147 °C	O=C(Cl)c1ccc(-c2ccsc2)cc1
107 to 108 °C	O=C1CCCN1c1ccc(S(=O)(=O)Cl)cc1
181 °C	O=C(Cc1ccc(/N=C/c2ccccc2)cc1)c1ccc(/N=C/c2ccccc2)cc1
49 to 50 °C	Brc1ccc2c(c1)CCO2
-43 °C	Fc1ccccc1Cl
182 °C	Cc1cc(C(C)(C)C)c(O)c(C)c1CC1=NCCN1
194 °C	O=C(O)COc1cccc(OCC(=O)O)c1
33 to 35 °C	Nc1cc(C(F)(F)F)ccc1N1CCCC1
273 °C	COc1cc2nc(N3CCN(C(=O)C4CCCO4)CC3)nc(N)c2cc1OC (stereo not given)
226 °C	CC(=O)Nc1ccc(C(=O)O)cc1[N+](=O)[O-]
-53.9 °C	SCCCCS

melting point	SMILES
44 °C	Cc1ccc(N=c2sccn2C)c(C)c1
174 to 175 °C	CC(=O)OCC1OC(n2cnc3c(N)ncnc32)C(OC(C)=O)C1OC(C)=O (stereo not given)
274 to 276 °C	CC(=O)Nc1ccc(-c2cc(C(=O)O)c3ccccc3n2)cc1
167 °C	O=c1ccnc2n(-c3ccccc3)[nH]cc1-2
136 to 137 °C	Cc1cccc(NC(=O)c2nn(-c3ccccc3)nc2C)n1
81 to 83 °C	CC1(C)Cc2cccc(C=O)c2O1
74 °C	CCC(C)(O)C(=O)O (stereo not given)
4 °C	CCCCCCCCC(Br)C(=O)O (stereo not given)
320 °C	Cc1cc2nc3c(=O)[nH]c(=O)nc-3n(C)c2cc1C
226 °C	COc1cc(C2Nn3c(nnc3-c3ccc([N+](=O)[O-])cc3)S2)ccc1O (stereo not given)
190 to 196 °C	OC1COC(Oc2ccc3cc(Br)ccc3c2)C(O)C1O (stereo not given)
66 °C	O=Cc1c(F)cc(F)cc1F
132 °C	CC(=O)OCC(OC(C)=O)C(OC1OC(COC(C)=O)C(OC(C)=O)C(OC(C)=O)C1OC(C)=O)C(OC(C)=O)C(C#N)OC(C)=O (stereo not given)
233 °C	CC1CC2C(C(O)CC3(C)C2CCC3(O)C(=O)CO)C2(C)C=CC(=O)C=C12 (stereo not given)
111 to 114 °C	O=S(=O)(c1ccc(Cl)cc1)N(C1CCNCC1)C1CC1
56 to 58 °C	Cc1nn(C(=O)OC(C)(C)C)c(C)c1I
131 to 132 °C	CON=C(c1cc2ccccc2o1)c1cc2ccccc2o1
-2 °C	O=C(O)C1CCC1
51 to 54 °C	Ic1cccc(Cn2cccn2)c1
94 to 96 °C	Cc1c(C(=O)CBr)cnn1-c1ccccc1
110 to 113 °C	Cc1nc(CC(=O)O)c(C)s1

melting point	SMILES
202 °C	CC(C)(C)NCC(O)COc1nsnc1N1CCOCC1 (stereo not given)
94 to 95 °C	Cc1cncc(N2CCC(C(=O)Oc3c(F)c(F)c(F)c(F)c3F)CC2)n1
145 to 146 °C	CCOC(=O)c1[nH]c(C)c(C=O)c1C
85 to 87 °C	CC(=O)/C(=N\Nc1cccc(C(F)(F)F)c1)C(=O)C(F)(F)F
106 °C	COc1cc(N)c(C(C)=O)cc1OC
93 to 96 °C	O=C(Cl)c1ccc2snnc2c1
103 °C	Nc1ccc2ccccc2c1N=Nc1ccccc1
169 to 171 °C	NC(=S)Cc1ccc(-c2csnn2)cc1
64 °C	O=C(c1cccc2ccccc12)C(Br)c1ccccc1 (stereo not given)
78 to 80 °C	O=S(=O)(c1ccccc1)n1ccc2ccccc21
> 200 °C	O=C(CNc1ccccc1)c1ccc(C(=O)CNc2ccccc2)cc1
65 °C	CC1(C)OC(=O)C2(CC2)C(=O)O1
163 °C	CC1(C)OC(C)(C(O)(c2ccccc2)c2ccccc2)CCC1C(=O)O (stereo not given)
150 to 152 °C	CCCCc1nc(CO)c(Cl)[nH]1
191 °C	Cc1cc(N=C2c3ccccc3CN2c2cc(C)on2)no1
198 °C	CCCN(CCC)S(=O)(=O)c1ccc(C(=O)O)cc1
87 °C	Cc1nc2cc3ccccc3cc2o1
91 °C	O=C(CBr)c1cccc(C(=O)CBr)c1
42 to 46 °C	CC(O)CCc1ccc(CCC(C)O)cc1 (stereo not given)
